Data on 36 compounds can be found in patent US11286268B1, “EIF4E-inhibiting compounds and methods” (EFFECTOR THERAPEUTICS, INC., priority 2019, dated 2022).

The test addresses recombinant eIF4E (Homo sapiens (Human), UniProt P06730). The experiment in a line: Fluorescence polarization competition assay for eIF4E binding potency. Here is the method:
Compounds were screened for eIF4E binding potency using a fluorescence polarization competition assay. All binding reactions were performed in fluorescence polarization buffer (FPB) containing 20 mM Tris pH 7.5, 100 mM NaCl, 1 mM DTT, and 0.02% Tween-20. Final binding reactions contained 75 nM recombinant eIF4E (Beryllium, custom order), 20 nM EDA-m^7GDP-ATTO-550 (Jena Bioscience, NU-827-550) and varying concentrations of the inhibitory compound of interest. Final DMSO concentration in each reaction was 1%.
eIF4E protein was pre-incubated with EDA-m^7GDP-ATTO-550 in FPB at 2× concentrations for 5 minutes prior to the addition of compounds. Compounds (100×) were prepared using 3-fold serial dilutions in 100% DMSO, and subsequently diluted 1:50 in FPB to produce 2× stocks. 50 μl of 2× eIF4E/EDA-m^7GDP-ATTO-550 were transferred to the wells of a 96-well half-area black flat bottom polystyrene plate. 50 μl of 2× test compound were added, and binding reactions were allowed to equilibrate for 30 minutes at room temperature while protected from light. The fluorescent polarization signal was detected using a Victor 2 multi-label counter (Perkin Elmer) and the concentration necessary to achieve inhibition of eIF4E/EDA-m^7GDP-ATTO-550 binding by 50% (IC50) was calculated using data from an 8-point compound dilution series.
In Table 4A, IC50 values of less than 0.05 μM are labelled as “+++”, from 1 to 0.05 μM are labelled as “++”, and greater than 1 μM are labelled as “+”. ND=not determined.
Background: Polarisation of emitted light reports the rotation of a fluorescent probe.

Where [1] appears, read: fluorescence polarization competition, 75 nM recombinant eIF4E, 20 nM EDA-m7GDP-ATTO-550, IC50 class, read-out: elF4E FP.
[2] abbreviates: inhibition of eIF4E/EDA-m7GDP-ATTO-550 binding by 50%, Table 4B calculated values, read-out: IC50.
Where [3] appears, read: inhibition of eIF4E/EDA-m7GDP-ATTO-550 binding, calculated IC50 values, Table 4B, read-out: IC50.

SMILES strings stand for the structures. Read-outs that look alike come from different tables or passages of the source.

recombinant eIF4E, sequence (P06730 whole entry): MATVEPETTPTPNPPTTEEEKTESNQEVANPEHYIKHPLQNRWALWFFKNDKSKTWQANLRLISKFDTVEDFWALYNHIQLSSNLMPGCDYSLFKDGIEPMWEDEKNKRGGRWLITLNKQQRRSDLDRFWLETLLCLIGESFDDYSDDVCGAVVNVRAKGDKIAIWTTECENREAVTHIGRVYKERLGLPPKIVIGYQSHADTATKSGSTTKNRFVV

As to `Cc1cc(-c2cc(Cl)ccc2OCCn2c(C)nc3cc(-c4cccnc4)cc(C#N)c3c2=O)c2scc(C(=O)O)c2n1` [compound 654], the IC50 is < 50 nM under setting [1] and 3.12 nM under setting [2].
As for `Cc1nc2cc(C(F)(F)F)c(N3CCN(c4cccnc4)CC3)c(C#N)c2c(=O)n1CCOc1ccc(Cl)cc1-c1cccc(C(=O)O)c1` [compound 380], the IC50 was < 50 nM under setting [1] and 29.7 nM under setting [2].
The like results for `O=C(O)c1csc2c(-c3cc(Cl)ccc3OCCn3c(=O)c4ccccc4c4cnncc43)ccnc12` [compound 658] were, in that order, > 1000 nM and 1290 nM.
For `Cc1cc(-c2cc(Cl)ccc2OCCn2c(C)nc3cnc(-n4cccn4)c(C#N)c3c2=O)c2scc(C(=O)O)c2n1` [compound 984], the IC50 is, setting by setting: under setting [1], < 50 nM; under setting [2], 11.5 nM.
For `Cc1nc2cc(C(F)(F)F)cc(C#N)c2c(=O)n1CCOc1ccc(Cl)cc1-c1cc(=O)n(C)c2c(C(=O)O)csc12` [compound 332], the IC50 is < 50 nM under setting [1] and 37.7 nM under setting [2].
In the case of `Cc1cc(-c2cc(Cl)ccc2OCCn2c(C)nc3cc(C(F)(F)F)c(N4CCN(C)CC4=O)c(C#N)c3c2=O)c2scc(C(=O)O)c2n1` [compound 1075], the IC50 by setting is: under setting [1], < 50 nM; under setting [2], 6.64 nM.
As for `Cc1cc(-c2cc(Cl)ccc2OCCn2c(C)nc3cc(C(F)(F)F)c(N4CCN(C)CC4)c(C#N)c3c2=O)c2scc(C(O)(O)C(F)(F)F)c2n1` [compound 1079], under setting [2], the IC50 was 55.9 nM.
Turning to `Cc1nc2cc(C(F)(F)F)c(N3CCN(C)CC3=O)c(C#N)c2c(=O)n1CC#Cc1ccc(Cl)cc1-c1ccnc2c(C(=O)O)csc12` [compound 1270], under setting [3], the IC50 is 39.9 nM.
As to `Cc1nc2cc(C(F)(F)F)cc(C#N)c2c(=O)n1CCOc1ccc(Cl)cc1-c1ccnc(C(=O)NS(C)(=O)=O)c1` [compound 1372], under setting [3], the IC50 was 80.7 nM.
Consider `Cc1cc(-c2cc(Cl)ccc2OCCn2c(C)nc3c(C)nc(CC4CCOCC4)c(C#N)c3c2=O)c2scc(C(=O)O)c2n1` [compound 400], for which the IC50 is < 50 nM under setting [1] and 4.68 nM under setting [2].
Consider `Cc1cc(-c2cc(Cl)ccc2OCCn2c(C)nc3cc(C(F)(F)F)c(-c4ccc(F)cn4)c(C#N)c3c2=O)c2scc(C(=O)O)c2n1` [compound 1381], for which, under setting [3], the IC50 was 7.96 nM.
Consider `CCc1cc(-c2cc(Cl)ccc2OCCn2c(C)nc3cc(C(F)(F)F)c(-c4ccncc4)c(C#N)c3c2=O)c2scc(C(=O)O)c2n1` [compound 1012], for which the IC50 is < 50 nM under setting [1] and 8.94 nM under setting [2].
Turning to `Cc1nc2cc(C(F)(F)F)c(N3CCN(CCC(F)(F)F)CC3)c(C#N)c2c(=O)n1CCCc1ccc(Cl)cc1-c1ccnc2c(C(=O)O)csc12` [compound 1156], the IC50 by setting is: under setting [1], < 50 nM; under setting [2], 35.1 nM.
As to `COc1cc(F)c(C(=O)O)cc1-c1cc(Cl)ccc1OCCn1cnc2cnc(C#N)cc2c1=O` [compound 97], the IC50 reads like this: under setting [1], > 1000 nM; under setting [2], > 3000 nM.
Consider `N#Cc1cc(C(F)F)cc2ncn(CCOc3ccc(Cl)cc3-c3cccc(C(=O)O)c3)c(=O)c12` [compound 139], for which the IC50 was < 50 nM under setting [1] and 34.6 nM under setting [2].
As to `Cc1cc(-c2cc(Cl)ccc2OCCn2c(C)nc3cc(C(F)(F)F)cc(C#N)c3c2=O)c2scc(C(=O)O)c2n1` [compound 121], the IC50 under setting [1] was < 50 nM and the IC50 under setting [2] is 37.5 nM.
With `Cc1cc(-c2cc(Cl)ccc2OCCn2c(C)nc3cc(C(F)(F)F)c(S(C)(=O)=O)nc3c2=O)c2scc(C(=O)O)c2n1` [compound 782], the IC50 runs as follows: under setting [1], < 50 nM; under setting [2], 4.03 nM.
On to `Cc1nc2cc(F)c(S(C)(=O)=O)c(C#N)c2c(=O)n1CCOc1ccc(Cl)cc1-c1ccnc2c(C(=O)O)csc12` [compound 279], for which the IC50 under setting [1] is < 50 nM and the IC50 under setting [2] was 17.8 nM.
The like results for `Cc1sc2c(-c3cc(Cl)ccc3OCCn3cnc4cc(C(F)(F)F)c(CN(C)C)c(C#N)c4c3=O)ccnc2c1C(=O)O` [compound 641] were, in that order, < 50 nM and 33.3 nM.
As for `Cc1cc(-c2c(C(F)(F)F)cc3nc(C)n(CCOc4ccc(Cl)cc4-c4cc(C)nc5c(C(=O)O)csc45)c(=O)c3c2C#N)cnn1` [compound 442], the IC50 is, setting by setting: under setting [1], < 50 nM; under setting [2], 17.7 nM.
Take `Cc1nc2cnc(N3CCN4CC(F)(F)CC4C3)c(C#N)c2c(=O)n1CCOc1ccc(Cl)cc1-c1ccnc2c(C(=O)O)csc12` (stereo not drawn) [compound 1311]: the IC50 under setting [3] was 13.3 nM.
With `Cc1c(C(F)(F)F)cc(C#N)c2c(=O)n(CCOc3ccc(Cl)cc3-c3ccnc4c(C(=O)O)csc34)c(C)nc12` [compound 416], the IC50 is < 50 nM under setting [1] and 23 nM under setting [2].
Consider `Cc1cc(-c2cc(Cl)ccc2OCCn2c(C)nc3cnc(N(C)CC(F)(F)F)c(C#N)c3c2=O)c2scc(C(=O)O)c2n1` [compound 971], for which the IC50 was 50 to 1000 nM under setting [1] and 57.8 nM under setting [2].
On to `C#Cc1c(C(=O)O)cccc1-c1cc(Cl)ccc1OCCn1c(C)nc2cncc(C#N)c2c1=O` [compound 155], for which the IC50 is, setting by setting: under setting [1], < 50 nM; under setting [2], 45.5 nM.
For the compound `Cc1cc(-c2cc(Cl)ccc2OCCn2c(C)nc3cnc(C4CCC4)c(C#N)c3c2=O)c2scc(C(=O)O)c2n1` [compound 912], the IC50 is, setting by setting: under setting [1], < 50 nM; under setting [2], 8.98 nM.
In the case of `Cc1nc2cnc(N3CCC4(CC3)CN(CC(C)(F)F)C4)c(C#N)c2c(=O)n1CC#Cc1ccc(Cl)cc1-c1ccnc2c(C(=O)NS(=O)(=O)c3cccnc3)csc12` [compound 1412], the IC50 under setting [3] was 6.71 nM.
For `Cc1c(CC#Cc2ccc(Cl)cc2-c2ccnc3c(C(=O)O)csc23)c(=O)c2c(C#N)cc(C(F)(F)F)cc2n1C` [compound 665], the IC50 is, setting by setting: under setting [1], < 50 nM; under setting [2], 16.5 nM.
As for `Cc1nc2cnc(/C=C/CN(C)CCF)c(C#N)c2c(=O)n1CC#Cc1ccc(Cl)cc1-c1ccnc2c(C(=O)O)csc12` [compound 1402], the IC50 under setting [3] was 6.58 nM.
`Cn1ccc2ncn(CCOc3ccc(Cl)cc3-c3cccc(C(=O)O)c3)c(=O)c21` [compound 69]: the IC50 by setting is: under setting [1], > 1000 nM; under setting [2], 26800 nM.
As for `Cc1nc2cnc(N(C)[C@@H]3CC[C@@H](N(C)CC(F)F)C3)c(C#N)c2c(=O)n1CC#Cc1ccc(Cl)cc1-c1ccnc2c(C(=O)O)csc12` [compound 1581], the IC50 under setting [3] was 14.3 nM.
For `Cc1nc2cc(C(F)(F)F)c(CN3CCCC3)c(C#N)c2c(=O)n1CCOc1ccc(Cl)cc1-c1ccnc2c(C(=O)O)csc12` [compound 526], the IC50 by setting is: under setting [1], 50 to 1000 nM; under setting [2], 64.1 nM.
Take `Cc1nc2cnc(N(C)C3CCN(CC(C)F)CC3)c(C#N)c2c(=O)n1CCOc1ccc(Cl)cc1-c1ccnc2c(C(=O)O)csc12` (stereo not drawn) [compound 1654]: the IC50 under setting [3] is 21 nM.
Turning to `Cc1nc2cnc(N3CCN(CC(F)F)CC3)c(C#N)c2c(=O)n1CC#Cc1ccc(Cl)cc1-c1ccnc2c(C(=O)O)csc12` [compound 1356], under setting [3], the IC50 is 23.2 nM.
Same read-out and setting: as for `CCN(c1ncc2nc(C)n(CC#Cc3ccc(Cl)cc3-c3ccnc4c(C(=O)NS(=O)(=O)c5ccccn5)csc34)c(=O)c2c1C#N)C1CCN([C@H]2C[C@H](OC(F)F)C2)CC1` [compound 1771], the figure is 26.6 nM.
Regarding `Cc1sc2c(-c3cc(Cl)ccc3OCCn3c(C)nc4cc(C(F)(F)F)c(N5CCN(C)CC5)c(C#N)c4c3=O)ccnc2c1C` [compound 1252], the IC50 under setting [3] is 222 nM.
For the compound `Cc1ccc(C#N)c2c(=O)n(CCOc3ccc(Cl)cc3-c3ccnc4c(C(=O)O)csc34)c(C)nc12` [compound 574], the IC50 under setting [1] lay in the range of 50 to 1000 nM and the IC50 under setting [2] was 57.5 nM.
